Measurements: publication PMC10900215 (JACS Au, 2024)
Several values for one entry are separate records, joined by “and”; a condition that tells them apart may be missing. Equal values may be shown once.

How the values were obtained:
METTL3-14 [1] = molecular target: T1, METTL3-14 (Homo sapiens, UniProt Q86U44); experiment: biochemical; design: with the full-length complex, the recombinant complex construct pFastBacDual-StrepII-GFP-TEV-METTL3-His-TEV-METTL14 was expressed; StrepII (N); GFP (N); TEV site (N); made in house; host or cells: baculovirus/Sf9 insect cells; details: inhibition of catalytic activity of METTL3-14, binary FRET assay
Excerpt: For determining the half maximal inhibitory concentration (IC50) with the full-length complex, the recombinant complex construct pFastBacDual-StrepII-GFP-TEV-METTL3-His-TEV-METTL14 was expressed using the baculovirus/Sf9 insect cell expression system and purified as described previously.[21]
The inhibitory potencies of the PROTACs for METTL3 were quantified by a homogeneous time-resolved fluorescence (HTRF)-based enzyme assay as previously described.[40]
Target sequence in this assay (Q86U44 whole entry): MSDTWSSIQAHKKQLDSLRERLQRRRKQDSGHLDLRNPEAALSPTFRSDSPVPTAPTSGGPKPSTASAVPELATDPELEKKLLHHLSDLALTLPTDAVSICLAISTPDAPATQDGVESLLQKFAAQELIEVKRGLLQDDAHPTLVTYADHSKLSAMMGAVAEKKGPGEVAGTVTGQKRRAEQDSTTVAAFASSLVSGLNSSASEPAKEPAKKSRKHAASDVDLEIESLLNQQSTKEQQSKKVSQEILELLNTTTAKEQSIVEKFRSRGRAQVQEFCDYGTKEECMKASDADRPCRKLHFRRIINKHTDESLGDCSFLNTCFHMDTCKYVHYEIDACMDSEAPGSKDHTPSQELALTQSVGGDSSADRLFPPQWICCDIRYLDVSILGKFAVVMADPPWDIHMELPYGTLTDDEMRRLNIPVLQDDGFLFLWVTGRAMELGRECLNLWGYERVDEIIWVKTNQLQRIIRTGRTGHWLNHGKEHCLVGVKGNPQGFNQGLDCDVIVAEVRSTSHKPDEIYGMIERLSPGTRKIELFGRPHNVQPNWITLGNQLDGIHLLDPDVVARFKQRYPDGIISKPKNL
Target sequence in this assay (Q9HCE5 whole entry, further chain): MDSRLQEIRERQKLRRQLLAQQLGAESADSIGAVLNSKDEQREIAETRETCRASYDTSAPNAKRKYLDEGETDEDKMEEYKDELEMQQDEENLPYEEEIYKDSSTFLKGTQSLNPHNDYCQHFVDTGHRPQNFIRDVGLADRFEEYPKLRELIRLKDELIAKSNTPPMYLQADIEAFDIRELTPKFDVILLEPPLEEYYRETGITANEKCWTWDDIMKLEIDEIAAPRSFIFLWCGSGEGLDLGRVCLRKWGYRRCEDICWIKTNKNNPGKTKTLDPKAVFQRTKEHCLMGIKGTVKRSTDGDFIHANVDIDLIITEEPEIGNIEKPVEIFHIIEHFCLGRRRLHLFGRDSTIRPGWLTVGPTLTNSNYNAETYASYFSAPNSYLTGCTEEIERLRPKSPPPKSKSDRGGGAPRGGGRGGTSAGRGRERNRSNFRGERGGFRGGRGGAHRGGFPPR

[2] = molecular target: T2, ternary complex CRBN/PROTAC/METTL3–14 (Homo sapiens, UniProt Q86U44+Q96SW2); experiment: FRET-based ternary complex formation assay (TCFA); format: binding; details: for TCFA amplitude (mean ± SEM): Hook curve amplitude, fraction of the maximum of compound 16; for ECmax (nM) ± SD: PROTAC concentration at the maximum of the signal in the TCFA; for ECmax: TCFA, peak of the Hook curve
T2 construct: methyltransferase domains (MTD) of METTL3 (residues 354–580); His6 (N, cleaved yes); made in house; host or cells: METTL3-MTD/METTL14-MTD: baculovirus/Sf9; CRBN-TBD: E. coli Rosetta (DE3), co-expressed with BirA
T2 sequence (Q86U44 354-580): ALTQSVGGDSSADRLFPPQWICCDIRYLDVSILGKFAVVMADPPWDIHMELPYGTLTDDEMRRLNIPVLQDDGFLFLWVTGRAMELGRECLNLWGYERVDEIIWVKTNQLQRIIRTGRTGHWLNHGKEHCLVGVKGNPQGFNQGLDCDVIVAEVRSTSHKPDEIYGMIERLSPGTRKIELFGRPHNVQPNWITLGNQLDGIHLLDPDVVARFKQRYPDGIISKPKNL
T2 sequence (Q9HCE5 107-395 partner limits assumed): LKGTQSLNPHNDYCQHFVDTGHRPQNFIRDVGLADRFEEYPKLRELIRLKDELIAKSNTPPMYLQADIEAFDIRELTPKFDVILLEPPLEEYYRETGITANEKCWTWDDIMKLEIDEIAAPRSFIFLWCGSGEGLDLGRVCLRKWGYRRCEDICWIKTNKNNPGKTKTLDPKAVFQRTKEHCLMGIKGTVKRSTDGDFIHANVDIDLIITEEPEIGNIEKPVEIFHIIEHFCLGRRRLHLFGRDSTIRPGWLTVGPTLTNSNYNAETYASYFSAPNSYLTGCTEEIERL
T2 sequence (Q96SW2 318-442): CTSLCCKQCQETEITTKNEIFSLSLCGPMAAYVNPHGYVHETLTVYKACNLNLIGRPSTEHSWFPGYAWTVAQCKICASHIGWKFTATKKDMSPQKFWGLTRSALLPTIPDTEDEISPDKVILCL
Method: For protein expression, suspension cultures of Sf9 cells in […] medium (Thermo Fisher) were infected at a density of 2 × 10^6 mL^–1. […] The complex was further purified by size exclusion chromatography using a Superdex 200 Increase 10/300 GL column (Cytiva) in 20 mM Tris-Cl, pH 8.0, and 200 mM KCl. The complex was aliquoted and flash-frozen in liquid nitrogen and stored at −80 °C until further use.
Ternary complex formation between the PROTACs, METTL3, and CRBN was quantified by a homogeneous time-resolved fluorescence (HTRF)-based enzyme assay. […] Curves of titrations with the PROTACs were plotted in GraphPad Prism 9.5.1 and fitted with a Gaussian function, if appropriate. […] CRBN^TBD-Avi(biotin) was used at a final concentration of 10 nM. […] Anti-GST Eu^3+-labeled antibody (Cisbio, 61GSTKLB) was used at a final concentration of 0.8 nM. The final reaction volume was 20 μL in 50 mM HEPES (pH 7.5), 150 mM NaCl, 0.1% BSA, 100 mM KF. […] The ratio of the emissions [drawing 1] was considered for further analysis. […] The concentrations resulting in the maximum signal (ECmax) and the amplitudes of the Hook curves were determined from the parameters of the Gaussian fit (if appropriate) or as the coordinates of the data-point with the highest TR-FRET signal.
For the ternary complex formation assay (TCFA), one of the protein partners must have a GST-tag and the other a biotin-tag.

[3] = Cell viability assay (CellTiter-Glo) on MOLM-13; format: cell-based; details: human, MOLM-13 cells, average of two biological replicates; for viability at 72 h, […]: 2.5 µM
Method: (§1) MOLM-13, NOMO-1, THP-1, Kasumi-1, PC3, and DU145 cell lines were obtained from DSMZ-German Collection of Microorganisms and Cell Cultures GmbH. Cells were cultured in RPMI 1640 medium (11875093, Thermo Fisher Scientific) containing 10% FBS (16140071, Thermo Fisher Scientific) and 1% penicillin-streptomycin (15140122, Thermo Fisher Scientific) in 5% CO2 at 37 °C in a humidified incubator, with maintained cell densities at 0.5–1 × 10^6 cells/mL. All cell lines were tested negative for mycoplasma contamination (PCR-based assay by Microsynth, Switzerland).
Cell viability was determined using a CellTiter-Glo luminescent cell viability assay (Promega) based on the detection of ATP according to the manufacturer’s instructions. 100 μL of the reagent was added to each well and incubated for 10 min at room temperature. […] Background luminescence value was obtained from wells containing the CellTiter-Glo reagent and medium without cells. The resulting data was analyzed in GraphPad Prism 9.

METTL3 = molecular target: T3, METTL3 (Homo sapiens, UniProt Q86U44); experiment: Cellular degradation assay (Western blot), METTL3 in MOLM-13; format: cell-based; details: MOLM-13, 24 h, 2 μM compound
T3 construct: METTL3–14 degradation up to 70% of the endogenous level; endogenous in cells; host or cells: MOLM-13, PC3, DU145
T3 sequence (Q86U44 2-580 limits assumed): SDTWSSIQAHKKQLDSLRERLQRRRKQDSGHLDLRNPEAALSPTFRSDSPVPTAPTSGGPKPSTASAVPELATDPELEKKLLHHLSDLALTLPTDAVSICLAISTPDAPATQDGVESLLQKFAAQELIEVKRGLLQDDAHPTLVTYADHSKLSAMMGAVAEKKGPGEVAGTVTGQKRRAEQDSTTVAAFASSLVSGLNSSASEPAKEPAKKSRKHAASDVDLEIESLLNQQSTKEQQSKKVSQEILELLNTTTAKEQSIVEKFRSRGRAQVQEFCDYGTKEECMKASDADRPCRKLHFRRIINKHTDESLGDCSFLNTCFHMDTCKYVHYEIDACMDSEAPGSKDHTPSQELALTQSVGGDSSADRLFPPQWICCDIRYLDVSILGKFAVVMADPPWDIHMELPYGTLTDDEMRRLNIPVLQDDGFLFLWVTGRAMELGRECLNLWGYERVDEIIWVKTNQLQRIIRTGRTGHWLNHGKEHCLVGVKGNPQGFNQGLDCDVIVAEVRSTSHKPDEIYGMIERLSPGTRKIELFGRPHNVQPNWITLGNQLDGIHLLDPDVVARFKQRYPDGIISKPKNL
T3 sequence (Q9HCE5 whole entry partner): as the sequence (Q9HCE5 whole entry, further chain) above
Method: as §1
(§2) METTL3 (and METTL14) protein degradation was monitored by Western blot. Cells were treated with the indicated concentration of PROTACs or DMSO control (0.1% (v/v)) for 24h, 37 °C with 5% CO2. Samples were then collected and lysed with RIPA buffer with added protease inhibitors (11697498001, Roche). After SDS-PAGE, proteins were transferred to a nitrocellulose membrane, blocked (with 5% milk, 0.5% BSA in TBST buffer), and incubated overnight with primary antibodies. The following antibodies were used: GAPDH (no. 2118, Cell Signaling, 1:4000), β-actin (ab8226, Abcam, 1:2000), METTL3 (ab195352, Abcam, 1:1000), and METTL14 (ab220031, Abcam, 1:1000). Membranes were scanned using an LI-COR Odyssey DLx imager after incubation with appropriate secondary antibodies (antimouse IgG IRDye 680RD (926–68072, LI-COR, 1:10000) and goat anti-Rabbit IgG IRDye 800CW (926–32211, LI-COR, 1:10000)). Densitometry was performed in Image Studio Lite software and analyzed in GraphPad Prism 9.

METTL14 = experiment: Cellular degradation assay (Western blot), METTL14 in MOLM-13; format: cell-based, human; details: MOLM-13, 24 h, 2 μM compound
Method: as §1, §2

METTL3-14 [4] = molecular target: T1, METTL3-14; experiment: Cellular degradation assay (Western blot), METTL3 and/or METTL14 (METTL3–14) in MOLM-13; format: cell-based; design: METTL3–14 degradation up to 70% of the endogenous level; endogenous in cells; host or cells: MOLM-13, KASUMI-1, THP-1, NOMO-1; details: for degradation of METTL3 and/or METTL14: MOLM-13, 2 μM, 24 h, Western blot
Method: MOLM-13, NOMO-1, THP-1, Kasumi-1, PC3, and DU145 cell lines were obtained from DSMZ-German Collection of Microorganisms and Cell Cultures GmbH. […] All cell lines were tested negative for mycoplasma contamination (PCR-based assay by Microsynth, Switzerland).
METTL3 (and METTL14) protein degradation was monitored by Western blot. Cells were treated with the indicated concentration of PROTACs or DMSO control (0.1% (v/v)) for 24h, 37 °C with 5% CO2. […] After SDS-PAGE, proteins were transferred to a nitrocellulose membrane, blocked (with 5% milk, 0.5% BSA in TBST buffer), and incubated overnight with primary antibodies. […] Densitometry was performed in Image Studio Lite software and analyzed in GraphPad Prism 9.
Target sequence in this assay (Q86U44 2-580 limits assumed): as the sequence (Q86U44 2-580 limits assumed) above
Target sequence in this assay (Q9HCE5 whole entry partner): as the sequence (Q9HCE5 whole entry, further chain) above

PC3 cell line = experiment: Cell viability assay (CellTiter-Glo) on PC3; format: cell-based, human
Method: as §1
Cells were seeded in white clear-bottom 96-well plates at a density of 6–20 × 10^3 cells/well in 50 μL of the complete RPMI medium and treated with 50 μL of increasing concentrations of the indicated compounds dissolved in DMSO (final concentration of compounds 0.01–10 μM) or DMSO only as a negative control (0.01% (v/v)) and incubated for 72 h at 37 °C with 5% CO2. Cell viability was determined using a CellTiter-Glo luminescent cell viability assay (Promega) based on the detection of ATP according to the manufacturer’s instructions. 100 μL of the reagent was added to each well and incubated for 10 min at room temperature. The luminescence was recorded using a Tecan Infinite […] M1000 microplate reader from the top. Background luminescence value was obtained from wells containing the CellTiter-Glo reagent and medium without cells. The resulting data was analyzed in GraphPad Prism 9.

Row | Structure (SMILES) | IC50 (METTL3-14 [1]) [nM] | TCFA amplitude (mean ± SEM) [2] | ECmax (nM) ± SD [2] | viability at 72 h, 0.6 µM [3] [%] | viability at 72 h, 1.25 µM [3] [%] | viability at 72 h, […] [3] [%] | viability at 72 h, 5 µM [3] [%] | viability at 72 h, 10 µM [3] [%] | MOLM-13 West. blot at 24h 2 μM comp conc. Degradation (%) of METTL3 (METTL3) | MOLM-13 West. blot at 24h 2 μM comp conc. Degradation (%) of METTL14 (METTL14) | ECmax [2] | degradation of METTL3 and/or METTL14 (METTL3-14 [4]) | activity / signal in the ternary complex formation assay [2] | METTL3–14 levels (METTL3-14 [4]; MOLM-13, 10 μM UZH2 control without PROTAC) | antiproliferative effect (PC3 cell line)
1 | CC1(C)CCN(Cc2cc(F)c(N3CC(=O)NC4(CCN(c5cc(NCc6cn(CCCCCCCCC(=O)Nc7cccc8c7CN(C7CCC(=O)NC7=O)C8=O)nn6)ncn5)CC4)C3)cc2F)CC1 (stereo not drawn) [Compound 26] | 34 ± 11 | 0.8 ± 0.0 | 190 ± 80 nM | 97.9 | 92.6 | 91.2 | 96.6 | 97.3 | 13% and 13 ± 30% | 12 ± 5% | – | – | – | – | –
2 | CC1(C)CCN(Cc2cc(F)c(N3CC(=O)NC4(CCN(c5cc(NCc6cn(CCCCCCCCCCC(=O)Nc7cccc8c7CN(C7CCC(=O)NC7=O)C8=O)nn6)ncn5)CC4)C3)cc2F)CC1 (stereo not drawn) [Compound 27] | 610 ± 230 | 0.7 ± 0.0 | 1100 ± 330 nM | 95.2 | 88.7 | 92.6 | 95.5 | 90.9 | 12% and 12 ± 43% | / (Degradation <10% or stabilization) | – | – | – | – | –
3 | CC1(C)CCN(Cc2cc(F)c(N3CC(=O)NC4(CCN(c5cc(NCCN6CCN(C(=O)CCCNc7cccc8c7C(=O)N(C7CCC(=O)NC7=O)C8=O)CC6)ncn5)CC4)C3)cc2F)CC1 (stereo not drawn) [Compound 29] | – | 1.0 ± 0.0 | 80 ± 0 nM | 93.7 | 93.5 | 93.4 | 94.5 | 87.4 | 42 ± 14% | 51 ± 11% | submicromolar | ≥ 50% | – | – | –
4 | CC1(C)CCN(Cc2cc(F)c(N3CC(=O)NC4(CCN(c5cc(NCCN6CCN(C(=O)CCCCCCCNc7cccc8c7C(=O)N(C7CCC(=O)NC7=O)C8=O)CC6)ncn5)CC4)C3)cc2F)CC1 (stereo not drawn) [Compound 31] | – | 0.9 ± 0.0 | 110 ± 40 nM | 95.4 | 88.3 | 88 | 85.2 | 80.2 | 49 ± 33% | 55 ± 24% | submicromolar | ≥ 50% | – | – | –
5 | CC1(C)CCN(Cc2cc(F)c(N3CC(=O)NC4(CCN(c5cc(NCCN6CCN(c7cccc8c7C(=O)N(C7CCC(=O)NC7=O)C8=O)CC6)ncn5)CC4)C3)cc2F)CC1 (stereo not drawn) [Compound 32] | – | – | – ^b | 106 | 106 | 103 | 91.5 | 74.6 | / (Degradation <10% or stabilization) | / (Degradation <10% or stabilization) | – | inactive | inactive | – | –
6 | CC1(C)CCN(Cc2cc(F)c(N3CC(=O)NC4(CCN(c5cc(NCCN6CCN(c7cnc(N8CCN(C(=O)CCCNc9cccc%10c9C(=O)N(C9CCC(=O)NC9=O)C%10=O)CC8)nc7)CC6)ncn5)CC4)C3)cc2F)CC1 (stereo not drawn) [Compound 33] | – | 0.8 ± 0.1 | 70 ± 10 nM | 92.1 | 90.9 | 95.3 | 97.7 | 89.6 | 44% and 44 ± 6% | 51 ± 19% | – | at least 50% | – | – | –
7 | CNc1cc(N2CCC3(CC2)CN(c2cc(F)c(CN4CCC(C)(C)CC4)cc2F)CC(=O)N3)ncn1 [UZH2, reference compound] | – | – | – | – | – | – | – | – | – | – | – | – | no activity | elevated levels of METTL3–14 | not
8 | CN1C(=O)CCC(N2C(=O)c3cccc(NCCCCCC(=O)N4CCC(CNc5cc(N6CCC7(CC6)CN(c6cc(F)c(CN8CCC(C)(C)CC8)cc6F)CC(=O)N7)ncn5)CC4)c3C2=O)C1=O (stereo not drawn) [me-24] | – | – | – | – | – | – | – | – | – | – | – | did not show any METTL3–14 degradation | – | – | –
